Legend:
CCK-8 viability assay = type: cell-based; settings: human, primary human chondrocytes; 1 µM, 72h; positive control set to 100; read-out: Mean % relative viability
Method: b) The viability of human primary chondrocytes was evaluated following incubation with increasing concentrations of either the pure Naringin (S1) or the nanosystems (Samples S2 and S3) at 2-10-50µM of encapsulated Naringin (1:5 serial dilutions) for 72h (higher concentrations were not used because the nanosystems become insoluble and aggregates sediment on the cell monolayer). For S2 this corresponded to 6,4 µg/ml (for 2 µM of Naringin), 32 µg/ml (for 10 µM of Naringin) and 158 µg/ml (for 50 µM of Naringin) respectively, of total NP concentration. For S3 (CS[PLA[NAR]]) the total NP concentrations to provide the same µM of encapsulated Naringin were 14,4 / 72 / 360 µg/m). As control for the nanosystems, a blank PLA nanoparticle preparation coated with chitosan (S4) was used, at the same µg/ml polymer concentration like the ones used to achieve the 2-10-50µM range for Naringin (the difference being that the blank contains no Naringin). Finally, the blank S4 was used at the 14,4/72/360 µg/ml concentration range (1:5 serial dilutions). Following incubation, the CCK-8 viability kit was used according to manufacturer's instructions (Sigma, 96992-500TESTS-F). Macroscopical and microscopical observation confirmed the proper complete solubility and dispersion of the Nanoparticles. Importantly, healthy cell morphology was observed (spindle-like attached cells with several processes) with concomitant absence of undissolved material.
Table 5. Effect of the natural products and the nanosystems on the relative cell viability of primary human chondrocytes. Measurements obtained using the CCK-8 viability kit. Values normalized to positive control (PC; set to 100; arbitrary unit). Samples' coding: S1= pure Naringin, S2=Naringin encapsulated in PLA nanoparticles [PLA[NAR]], S3=Naringin encapsulated in PLA nanoparticles coated with chitosan CS[PLA[NAR]], and S4=Blank PLA nanoparticles coated with chitosan, CS(PLA[---]].

[1] = Body weight in collagenase-induced osteoarthritis rat model; type: in vivo, Wistar rats
Method: (§1) In order to understand the anti-inflammatory and antioxidant potential of the nanoparticles of the invention in vivo an experimental animal model of osteoarthritis (OA) was established. The OA lesions were caused by matrix degradation of articular cartilage using enzymatic means, such as collagenase type-II. Following the induction of osteoarthritis, the studied nanoparticles were administered for 8 weeks in which period the morphological and behavioral changes were measured and finally histological analysis of the articular cartilage samples concluded the in vivo study.
(§2) Rats were anesthetized with chloral hydrate. The right knee joints of Group I were injected with normal saline solution and served as a control. Animals from the groups II, III, IV, V, VI, VII were injected with collagenase type II (Clostridium histolyticum). Collagenase (125 collagen digestion unit/mg) was dissolved in saline, and it was injected intra-articularly into the right knee joint twice on days 1 and 4 of the experiment (Al-Saffar, F., H. Ganabadi and S. Fakurazi. Collagenase and sodium iodoacetate-induced experimental osteoarthritis model in Sprague dawley rats. Asian J. Sci. Res. 2: 1-13, 2009). The left knees of all animals were left untreated as a control.
(§3) Changes in body weight and knee diameter were measured on the 1st, 4th,11th,21st,31st,41st,51st, 61st, 71st day before every injection. Knee diameter was measured using a digital caliper. […] A change in body weight is also measured as one of the parameters to assess the course of the disease in the OA animal models.

[2] = test system: experimental animal model of osteoarthritis (OA); experiment: Knee diameter (digital caliper) and gross observations in collagenase-induced osteoarthritis rat model; type: in vivo, Wistar rats; settings: for Right knee diameter: collagenase-injected knee; for Left knee diameter: untreated control knee
Method: as §1, §2, §3

[3] = test system: experimental animal model of osteoarthritis (OA); experiment: von Frey mechanical allodynia test in osteoarthritis rat model; type: in vivo, Wistar rats; settings: for Paw Withdrawal Threshold (%): right paw/(right paw + left paw)*100
Method: Healthy adult male Wistar rats (150-200 g) were used for the study, with water and food ad libitum, at a constant temperature of 22°C and controlled lighting (12 h light/12 h dark cycle). […] As far as the dispersion procedure of the injectables is concerned, all the natural compounds were dissolved in saline solution, whereas the studied nanoparticles were mechanically grinded in a mortar and pestle set with saline solution and Tween 20 (2% w/v) and heated at 36 °C before each treatment. There were six treatments administered every 10 days. At the end of the experiment rats were euthanized and both knees were collected for histological analysis. Rats were anesthetized with chloral hydrate. The right knee joints of Group I were injected with normal saline solution and served as a control. Animals from the groups II, III, IV, V, VI, VII were injected with collagenase type II (Clostridium histolyticum). Collagenase (125 collagen digestion unit/mg) was dissolved in saline, and it was injected intra-articularly into the right knee joint twice on days 1 and 4 of the experiment ([…] and S. Fakurazi. Collagenase and sodium iodoacetate-induced experimental osteoarthritis model in Sprague dawley rats. Asian J. Sci. Res. 2: 1-13, 2009). The left knees of all animals were left untreated as a control. For the evaluation of the effectiveness and time of release of the encapsulated compounds, all animals were subjected to a series of behavioral testing in addition to the measurements of body weight and knees diameter change. The experimental protocol of the present study followed the combination of three different behavioral tests, which are von Frey mechanical allodynia test, grid walking and slope walking test. Behavioral tests are performed in three phases, at the beginning before the start of treatment, in the middle of treatment (approximately 35-40 days) and at the end (after the 70th day). Mechanical allodynia was tested by the von Frey method which detects pain threshold as the paw withdrawal response. For the testing, rats were placed into plastic chambers that allow access to the plantar surface of the hind paws. […] In Table 15 below, the nociceptive threshold is defined as: nociceptive threshold (%) = ([…])/((nociceptive; threshold on right paw + nociceptive threshold of left paw))*100 [formula] Table 13: von Frey-paw withdrawal threshold (g)

[4] = test system: experimental animal model of osteoarthritis (OA); experiment: Grid-walking test in osteoarthritis rat model; type: in vivo, Wistar rats
Method: as §2
In this test the rats were allowed to explore freely for 4 minutes in a wire grid and when one of the limbs fell below the grid surface during free walking, the observer counted the number of foot-fault errors (footslips) (Starkey, M. L., Barritt, A. W., Yip, P. K., Davies, M., Hamers, F. P. T., McMahon, S. B., & Bradbury, E. J. (2005). Assessing behavioural function following a pyramidotomy lesion of the corticospinal tract in adult mice. Experimental Neurology, 195(2), 524-539. doi:10.1016/j.expneurol.2005.0).

[5] = test system: experimental animal model of osteoarthritis (OA); experiment: Slope walking test in osteoarthritis rat model; type: in vivo, Wistar rats
Method: as §2
Walking on an inclined plane was used for the clinical assessment of motor function in rats after induction of OA. The method consists of placing the animal on an inclined plane and then measuring the time (seconds) needed for the animals to go up the walking tray.

RAW264.7 cells = experiment: MTT cell viability assay; type: cell-based, mouse; settings: 24h
Description: The MTT (3-[4,5-dimethylthiazol-2-yl]-2,5 diphenyl tetrazolium bromide) assay is based on the ability of viable cells with active metabolism to convert the yellow MTT to a purple formazan product, which determines mitochondrial activity. The MTT formazan product agglomerates as an insoluble residuum within the cells, which can be solubilized (in this protocol with DMSO) for homogeneous measurement. Thus, any increase or decrease in the number of viable cells can be detected by measuring the formazan concentration reflected in the optical density (OD) measurement at 540 nm with a reference absorption of 720 nm. This assay is broadly used to measure the in vitro cytotoxic effects of drugs on cell lines or primary cells. For the experimental procedure a standard solution of MTT 1mg/mL in PBS was prepared which after filtration ([…] filter (Millipore, Carrigtwohill, Ireland)) was stored in the dark (4-8 °C) until use. In brief, RAW 264.7 cells were seeded in a 96-well plate at a density of 30.000 cells/ in 100 µL of medium per well. […] This was followed by incubation for 24 h, 48 h and 72 h. At the end of the incubation 10 µL of MTT was added to each well followed by incubation for 4 hours, for the formation of the formazan crystals. The formazan crystals were then dissolved by adding DMSO and stirring lightly for 30 min, after which the absorbance was measured in a plate reader at 540 nm with a reference absorbance of 720 nm. […] Table 4: % cell viability after treatment of RAW264.7 cells with the samples

[6] = 1st injection CO/saline (before treatment)
[7] = 2nd injection CO/saline (before treatment)
[8] = 70 days (end of experimental protocol)

Question: Which viability at 72 h, 1 µM (CCK-8 viability assay) does the source give for `CC(C)Cc1ccc(C(C)C(=O)O)cc1` (centres unmarked) [IBUPROFEN, ibuprofen] here?
Answer: 100%

Question: What about the “Body Weight (BW)” value [1, 6] of the same molecule?
Answer: 234 g

Question: And the “Body Weight (BW)” value ([1]; 1st treatment, 10 mg/kg (S1, ibuprofen i.p.; nanoparticles i.a.), every 10 days)?
Answer: 245 g

Question: What about the “Body Weight (BW)” value [1, 7] of the same molecule?
Answer: 230 g

Question: What about the “Body Weight (BW)” value ([1]; 2nd treatment, 10 mg/kg (S1, ibuprofen i.p.; nanoparticles i.a.)) of the same molecule?
Answer: 276 g

Question: And the “Body Weight (BW)” value ([1]; 3rd treatment, 10 mg/kg (S1, ibuprofen i.p.; nanoparticles i.a.))?
Answer: 296 g

Question: And the “Body Weight (BW)” value ([1]; 4th treatment, 10 mg/kg (S1, ibuprofen i.p.; nanoparticles i.a.))?
Answer: 303 g

Question: What about the “Body Weight (BW)” value ([1]; 5th treatment, 10 mg/kg (S1, ibuprofen i.p.; nanoparticles i.a.)) of the same molecule?
Answer: 308 g

Question: What about the “Body Weight (BW)” value ([1]; 6th treatment, 10 mg/kg (S1, ibuprofen i.p.; nanoparticles i.a.)) of the same molecule?
Answer: 313 g

Question: What about the “% Changes in Body Weight (BW)” value ([1]; 11 days (before treatment)) of the same molecule?
Answer: 4,7%

Question: And the “% Changes in Body Weight (BW)” value [1, 8]?
Answer: 40,2%

Question: What about the “Body Weight (BW)” value ([1]; final, 10 mg/kg (S1, ibuprofen i.p.; nanoparticles i.a.)) of the same molecule?
Answer: 328 g

Question: And the “% Changes in Left knee diameter” value ([2]; 11 days (before treatment))?
Answer: 0,02%

Question: And the “% Changes in Right knee diameter” value ([2]; 11 days (before treatment))?
Answer: 0,91%

Question: What about the “% Changes in Left knee diameter” value [2, 8] of the same molecule?
Answer: 0,44%

Question: What about the “% Changes in Right knee diameter” value [2, 8] of the same molecule?
Answer: 0,37%

Question: What about the Right knee diameter [2, 6] of the same molecule?
Answer: 0,8128 cm

Question: What about the Right knee diameter ([2]; 1st treatment, 10 mg/kg (S1, ibuprofen i.p.; nanoparticles i.a.)) of the same molecule?
Answer: 0,8202 cm

Question: What about the Right knee diameter [2, 7] of the same molecule?
Answer: 0,8192 cm

Question: And the Right knee diameter ([2]; 3rd treatment)?
Answer: 0,8172 cm

Question: What about the Right knee diameter ([2]; 4th treatment) of the same molecule?
Answer: 0,8174 cm

Question: What about the Right knee diameter ([2]; 5th treatment) of the same molecule?
Answer: 0,817 cm

Question: And the Right knee diameter ([2]; 6th treatment)?
Answer: 0,816 cm

Question: What about the Right knee diameter ([2]; final) of the same molecule?
Answer: 0,8158 cm

Question: And the Left knee diameter ([2]; 1st injection CO/saline)?
Answer: 0,8158 cm

Question: What about the Left knee diameter ([2]; 1st treatment) of the same molecule?
Answer: 0,816 cm

Question: And the Left knee diameter ([2]; 2nd injection CO/saline)?
Answer: 0,816 cm

Question: And the Left knee diameter ([2]; 4th treatment)?
Answer: 0,8184 cm

Question: What about the Left knee diameter ([2]; final) of the same molecule?
Answer: 0,8194 cm

Question: What about the “von Frey-paw withdrawal threshold” value ([3]; 11 days (before treatment)) of the same molecule?
Answer: 59,78 g

Question: What about the “von Frey-paw withdrawal threshold” value ([3]; 70 days (end of experimental protocol), 10 mg/kg (S1, ibuprofen i.p.; nanoparticles i.a.)) of the same molecule?
Answer: 83,8 g

Question: And the “von Frey-paw withdrawal threshold” value ([3]; left-control paw)?
Answer: 93,9 g

Question: What about the “Paw Withdrawal Threshold (%)” value ([3]; 11 days (before treatment)) of the same molecule?
Answer: 38,90%

Question: And the “Paw Withdrawal Threshold (%)” value [3, 8]?
Answer: 45,44%

Question: What about the “Foot fault in grid-walk test (4 min)” value ([4]; 11 days left paw) of the same molecule?
Answer: 1,4

Question: What about the “Foot fault in grid-walk test (4 min)” value ([4]; 11 days right paw) of the same molecule?
Answer: 2,8

Question: And the “Foot fault in grid-walk test (4 min)” value ([4]; 40 days left paw)?
Answer: 1,8

Question: What about the “Foot fault in grid-walk test (4 min)” value ([4]; 40 days right paw) of the same molecule?
Answer: 1,2

Question: And the “Foot fault in grid-walk test (4 min)” value ([4]; 70 days left paw)?
Answer: 1

Question: What about the “Foot fault in grid-walk test (4 min)” value ([4]; 70 days right paw) of the same molecule?
Answer: 1

Question: And the “Slope Walking” value ([5]; 11 days (before treatment))?
Answer: 9,8 sec

Question: And the “Slope Walking” value [5, 8]?
Answer: 8,9 sec

Question: For `COc1cc(C2Oc3cc([C@H]4Oc5cc(O)cc(O)c5C(=O)[C@@H]4O)ccc3OC2CO)ccc1O` (some centres unmarked) [PC (Silibinin), silibinin], which “% cell viability” value (RAW264.7 cells; 25 µM) is on record?
Answer: 30%

Question: And the “% cell viability” value (RAW264.7 cells; 50 µM)?
Answer: 20%
